Measurements reported in ChEMBL document CHEMBL1201862, “PubChem BioAssay data set” (2004).
Calls of active or inactive are those of the source. Rule as the data show it, for most assays here: actives have a measured EC50 and inactives only a lower limit.

Tests used:
[1] = biological target: T1, Heat shock factor protein 1 (Mus musculus, UniProt P38532); assay: HSF1 potentiators in luciferase reporter cells, confirmation, cell-based, NIH3T3, luminescence, dose retest (AID 435004); type: functional;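 also: stress induced by proteasome inhibitor MG132 added 30 min after compound; luciferase reporter driven by HSF1 response element in NIH3T3 cells; actives raise luminescence as potentiators of the MG132 stress response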
T1 sequence (P38532 whole entry): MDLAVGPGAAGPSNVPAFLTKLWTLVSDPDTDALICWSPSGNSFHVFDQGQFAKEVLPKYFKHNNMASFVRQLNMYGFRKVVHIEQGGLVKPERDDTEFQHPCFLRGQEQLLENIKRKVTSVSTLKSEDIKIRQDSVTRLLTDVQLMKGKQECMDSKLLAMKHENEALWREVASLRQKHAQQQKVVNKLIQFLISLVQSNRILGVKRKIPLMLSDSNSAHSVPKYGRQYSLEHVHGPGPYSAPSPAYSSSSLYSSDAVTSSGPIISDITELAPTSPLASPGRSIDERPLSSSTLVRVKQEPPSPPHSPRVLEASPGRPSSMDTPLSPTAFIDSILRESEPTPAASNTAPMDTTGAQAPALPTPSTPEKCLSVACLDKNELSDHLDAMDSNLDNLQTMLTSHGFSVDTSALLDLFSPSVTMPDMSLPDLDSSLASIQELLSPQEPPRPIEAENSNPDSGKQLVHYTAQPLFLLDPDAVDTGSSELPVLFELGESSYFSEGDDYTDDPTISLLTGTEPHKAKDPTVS

[2] = tested on: INS1; assay: beta cell apoptosis inhibitors, cytokine rescue, dose response, luminescence, retest (AID 449756); type: functional, cell-based; settings: Rattus norvegicus;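 also: cell death triggered by IL-1 beta plus TNF-alpha plus IFN-gamma mixture; protective hits raise ATP signal compared with cytokine alone wells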
[3] = Luminescence Cell-Based Dose Response HTS to Identify Activators of Luciferase Translation or Activity in H4 […] Cells. [Related pubchem assays: 1829 (Project Summary), 1814 (Primary HTS)]; type: functional
[4] = Luminescence Cell-Based Dose Confirmation HTS to Identify Activators of 5'UTR Stem-Loop Driven Alpha-Synuclein mRNA Translation in H4 Neuroglioblastoma Cells. [Related pubchem assays: 1829 (Project Summary), 1814 (Primary HTS)]; type: functional
[5] = tested on: H4; assay: Luminescence Cell-Based Dose Response HTS to Identify Activators of 5'UTR Stem-Loop Driven Prion Protein mRNA Translation in H4 Neuroglioblastoma Cells. [Related pubchem assays: 1829 (Project Summary), 1814 (Primary HTS)]; type: functional; settings: Homo sapiens
[6] = Luminescence Cell-Based Dose Retest to Confirm Inhibitors of Cancer Stem Cells. [Related pubchem assays (depositor defined):AID2717, AID2721]; type: functional; settings: Homo sapiens
[7] = tested on: Streptococcus; assay: Group A Streptococcus viability loss, dose response, counter-screen for streptokinase expression inhibitor project, luminescence, BacTiterGlo (AID 1915); type: functional, organism-based;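 also: potency for reduction of bacterial viability or growth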
[8] = biological target: T2, Streptokinase A (Streptococcus pyogenes serotype M1, UniProt P10520); assay: S. pyogenes streptokinase expression inhibitors, potency, dose response, plasminogen activation absorbance, OD405 (AID 1914); type: functional, Streptococcus pyogenes M1 GAS;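 also: secreted streptokinase activity via plasminogen activation per viability signal from cell pellet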
T2 sequence (P10520 whole entry): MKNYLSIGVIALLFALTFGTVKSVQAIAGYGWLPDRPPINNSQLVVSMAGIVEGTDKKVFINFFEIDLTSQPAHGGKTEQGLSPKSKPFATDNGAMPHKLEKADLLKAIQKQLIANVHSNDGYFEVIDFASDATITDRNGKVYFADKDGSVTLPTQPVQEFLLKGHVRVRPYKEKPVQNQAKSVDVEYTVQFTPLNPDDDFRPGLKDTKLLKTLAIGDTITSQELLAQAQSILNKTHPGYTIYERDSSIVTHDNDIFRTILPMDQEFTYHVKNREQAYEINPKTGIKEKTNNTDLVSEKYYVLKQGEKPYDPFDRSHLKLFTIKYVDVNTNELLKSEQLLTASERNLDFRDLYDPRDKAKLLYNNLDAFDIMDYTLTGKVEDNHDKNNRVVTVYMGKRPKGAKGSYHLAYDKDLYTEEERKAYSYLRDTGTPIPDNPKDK

[9] = tested on: Streptococcus sp. 'group A'; assay: growth inhibition of control SK(-) GAS strain, dose response, counter-screen for streptokinase expression inhibitor project, luminescence, kanamycin, BacTiterGlo, confirmation (AID 1900); type: functional, organism-based
[10] = cytotoxicity toward NIH3T3 fibroblasts, dose response, counter-screen, cell-based, ATP luminescence, mouse fibroblasts (AID 2010); type: functional;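 also: cells exposed to compound for about 90 hours before reading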
[11] = inhibitors of intracellular T. cruzi replication, confirmation, NIH3T3 host cells, beta-gal luminescence (AID 2044); type: functional, cell-based;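 also: intracellular parasites grown in NIH/3T3 mouse fibroblasts as host cells; luminescent beta-galactosidase reporter signal from transgenic T. cruzi replicating inside host cells; inhibitors lower the luminescence signal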
[12] = biological target: T3, Corticotropin-releasing factor receptor 2/Corticotropin-releasing factor-binding protein (Homo sapiens, UniProt P24387+Q13324); assay: activators of CRF receptor 2 with binding protein – uHTS hits, confirmation (AID 602473); type: functional; settings: read-out: EC50_Mean
T3 sequence (Q13324 whole entry): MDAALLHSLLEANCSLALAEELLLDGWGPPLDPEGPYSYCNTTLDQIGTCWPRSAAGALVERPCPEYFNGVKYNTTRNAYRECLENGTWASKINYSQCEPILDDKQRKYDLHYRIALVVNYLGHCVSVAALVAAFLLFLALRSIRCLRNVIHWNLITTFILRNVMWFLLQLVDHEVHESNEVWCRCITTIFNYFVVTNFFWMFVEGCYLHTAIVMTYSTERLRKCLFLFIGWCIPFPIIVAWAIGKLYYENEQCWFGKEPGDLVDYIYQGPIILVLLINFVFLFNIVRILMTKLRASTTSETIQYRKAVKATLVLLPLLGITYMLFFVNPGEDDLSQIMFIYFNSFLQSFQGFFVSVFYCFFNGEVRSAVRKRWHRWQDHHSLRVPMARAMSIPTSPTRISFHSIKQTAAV
T3 sequence (P24387 whole entry): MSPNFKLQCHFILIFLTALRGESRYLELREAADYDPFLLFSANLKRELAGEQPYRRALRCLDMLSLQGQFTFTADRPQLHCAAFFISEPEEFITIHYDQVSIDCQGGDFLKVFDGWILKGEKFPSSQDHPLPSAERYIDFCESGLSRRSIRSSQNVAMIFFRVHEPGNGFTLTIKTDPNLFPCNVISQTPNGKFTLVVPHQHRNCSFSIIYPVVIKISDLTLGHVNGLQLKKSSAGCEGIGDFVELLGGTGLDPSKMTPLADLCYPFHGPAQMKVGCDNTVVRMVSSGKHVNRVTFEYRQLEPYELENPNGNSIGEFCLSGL

## Cc1ccc(-c2csc(NC(=O)c3cccc([N+](=O)[O-])c3)n2)cc1
[1]
  EC50: > 260 µM (inactive)

## CN1/C(=C\C(=S)NC(=O)c2ccc([N+](=O)[O-])cc2)C(C)(C)c2ccccc21
[2]
  AC50: 22.2 µM (active)

## O=C(CCS(=O)(=O)c1cccs1)NC1CCCCCC1
[3]
  EC50: 29.1 µM (active)
[4]
  EC50: 13.5 µM (active)
[5]
  EC50: 16 µM (active)

## CC1=NN(C(N)=S)C(=O)C1N=Nc1ccc(Cl)cc1Cl (configuration not stated)
[3]
  EC50: > 120 µM (not active)
[4]
  EC50: 1.09 µM (active)
[5]
  EC50: > 120 µM (not active)

## CC1(C)CC(=O)/C(=C\c2cccc([N+](=O)[O-])c2)C(C)(C)N1
[1]
  EC50: 18.6 µM (active)

## CCOC(=O)Cc1nnc(Nc2cccc(C)c2)c2ccccc12
[1]
  EC50: > 260 µM (inactive)

## CC1(C)CC(=O)C2=C(C1)c1c(ccc3ccccc13)NC2c1ccco1 (configuration not stated)
[3]
  EC50: 27.4 µM (active)
[4]
  EC50: 15.7 µM (active)
[5]
  EC50: > 120 µM (not active)

## c1ccc(-c2nc(CSc3n[nH]c(-c4cccs4)n3)cs2)cc1
[1]
  EC50: > 260 µM (inactive)

## COc1cc(-c2nnc(CSc3nnc(Nc4ccc(C(C)C)cc4)s3)o2)cc(OC)c1OC
[1]
  EC50: 31.8 µM (active)

## COc1ccc(C)cc1Nc1n[n+](-c2ccccc2)c(-c2c(OC)ccc3ccccc23)s1
[6]
  AC50: 4.84 µM (active)
[2]
  AC50: 5.74 µM (active)

## Cc1ccc(OCc2ccc(C#N)cc2)c(C(=O)c2cc(C#N)c(=O)n(C3CC3)c2)c1
[1]
  EC50: > 260 µM (inactive)

## CCCCn1c(N)c(N(CC(C)C)C(=O)C2CCN(S(=O)(=O)c3ccc(C)c(C)c3)CC2)c(=O)[nH]c1=O
[1]
  EC50: > 260 µM (inactive)

## Cc1ccc(CSc2nc3sc(C)c(C)c3c(=O)n2Cc2ccco2)cc1
[7]
  EC50: > 150 µM (not active)
[8]
  EC50: 99.5 µM (active)
[6]
  AC50: 23.3 µM (active)
[9]
  EC50: > 150 µM (not active)

## Cc1ccc(N=C2NC(=O)CS2)cc1
[1]
  EC50: > 260 µM (inactive)

## O=C(C[n+]1cccc(C(=O)Nc2ccccc2)c1)c1ccc([N+](=O)[O-])cc1
[1]
  EC50: 64.6 µM (active)

## CCOc1cc(/C=C2\CCCc3c2nc2ccccc2c3C(=O)O)ccc1OC
[1]
  EC50: > 260 µM (inactive)

## Cc1ccc(Sc2cc(C)nc(-c3ccccn3)n2)cc1
[7]
  EC50: 49.4 µM (active)
[8]
  EC50: > 150 µM (not active)
[9]
  EC50: 21.1 µM (active)
[2]
  AC50: 4 µM (active)

## O=C(Nc1cccc(Cl)c1)Nc1sccc1-c1nc2ccccc2s1
[6]
  AC50: 39 µM (active)

## CCc1cccc(NS(=O)(=O)c2ccc3c(c2)NC(=O)C(C)S3)c1 (configuration not stated)
[1]
  EC50: > 260 µM (inactive)

## Cc1nnc2n1N=CC=C(c1ccccc1)S2
[3]
  EC50: 7.89 µM (active)
[4]
  EC50: 0.547 µM (active)
[5]
  EC50: > 120 µM (not active)

## CCOC(=O)c1cnc(-n2nc(C)cc2C)nc1Nc1ccc(N(C)C)cc1
[10]
  EC50: > 30 µM (not active)
[11]
  EC50: 1.12 µM (active)
[2]
  AC50: 4.04 µM (active)

## CC(C)(C)NC(=O)C(c1ccncc1)N(C(=O)Cn1nnc(-c2cccs2)n1)C1CCCCC1 (configuration not stated)
[1]
  EC50: > 260 µM (inactive)

## Oc1c2cnnc-2nc(SCc2ccccc2F)n1-c1ccc(Br)cc1
[6]
  AC50: 3.3 µM (active)

## CC(C)C[C@H]1CN=C(Nc2ccccc2)N1CCc1ccc(F)cc1
[2]
  AC50: 64.4 µM (active)

## N#Cc1c(-c2ccccc2)cc(-c2ccccc2)nc1SCC(=O)NCC(=O)O
[12]
  EC50: 12.2 µM (active)

## Cc1ccc(CNc2c(C=O)c(O)nc3ccccc23)cc1
[1]
  EC50: > 260 µM (inactive)

## C/C(=C\C(=O)Nc1cscc1C)C(=O)O
[1]
  EC50: > 260 µM (inactive)

## Cc1cccc(OCCOC(=O)c2c(-c3ccccc3)noc2C)c1
[3]
  EC50: 62 µM (active)
[4]
  EC50: > 120 µM (not active)
[5]
  EC50: > 120 µM (not active)

## Cc1cc(C)c2c3c(sc2n1)C1(CCSCC1)C(C#N)=C(N)O3
[3]
  EC50: 14.5 µM (inconclusive)
[4]
  EC50: 20.3 µM (active)
[10]
  EC50: > 30 µM (not active)
[11]
  EC50: 0.118 µM (active)
[5]
  EC50: 14.7 µM (active)

## Cc1c(OCC(=O)NCCCn2ccnc2)ccc2c3c(c(=O)oc12)CCCC3
[1]
  EC50: > 260 µM (inactive)

## c1ccc(-c2sc3ccccc3c2-c2ccc(OCCN3CCOCC3)cc2)cc1
[6]
  AC50: 2.28 µM (active)

## CN(/N=C/c1cc(Cl)cc(Cl)c1O)C(=S)NC(C)(C)C
[6]
  AC50: 2.5 µM (active)

## Cc1nc2ccccc2c(=O)n1/N=C1\C(=O)N(C)c2ccccc21
[3]
  EC50: 12.6 µM (active)
[4]
  EC50: > 120 µM (not active)
[5]
  EC50: > 120 µM (not active)

## COC(=O)c1ccc(COc2ccccc2/C=N/NS(=O)(=O)c2ccc(C)cc2)cc1
[3]
  EC50: > 120 µM (not active)
[4]
  EC50: > 120 µM (not active)
[5]
  EC50: > 120 µM (not active)

## O=C1NC2(CCCCC2)C(=O)N1/N=C/c1ccccc1Br
[3]
  EC50: 24.6 µM (active)
[4]
  EC50: > 120 µM (not active)
[5]
  EC50: 16.1 µM (active)

## CCN1/C(=N/c2ccc(Cl)cc2)SC/C1=C\C(=O)OC
[3]
  EC50: 26.6 µM (active)
[4]
  EC50: 17.1 µM (active)
[5]
  EC50: 23.7 µM (active)
